Legend:
Surinam grass = assay: Test C pre-/postemergence test; assay type: in vivo, Brachiaria decumbens; settings: for Plant response rating, Surinam Grass: 31 g ai/ha, scale 0 to 100 (0 no effect, 100 complete control)
From the text: (§1) Seeds of plant species selected from blackgrass (Alopecurus myosuroides), downy brome (Bromus tectorum), green foxtail (Setaria viridis), Italian ryegrass (Lolium multiflorum), wheat (Triticum aestivum), wild oat (Avena fatua), catchweed bedstraw (Galium aparine), Russian thistle (Salsola kali), […] (Cynodon dactylon), Surinam grass (Brachiaria decumbens), cocklebur (Xanthium strumarium), corn (Zea mays), crabgrass (Digitaria sanguinalis), woolly cupgrass (Eriochloa villosa), giant foxtail (Setaria faberii), Goosegrass (Eleusin indica), johnsongrass (Sorghum halepense), kochia (Kochia scoparia), lambsquarters (Chenopodium album), morningglory (Ipomoea coccinea), eastern black nightshade (Solanum ptycanthum), yellow nutsedge (Cyperus esculentus), pigweed (Amaranthus retroflexus), common ragweed (Ambrosia elation), soybean (Glycine max), common (oilseed) sunflower (Helianthus annuus), and velvetleaf (Abutilon theophrasti) were planted and treated preemergence with test chemicals formulated in a non-phytotoxic solvent mixture which included a surfactant. At the same time, plants selected from these crop and weed species and also winter barley (Hordeum vulgare), canarygrass (Phalaris minor), and chickweed (Stellaria media) were treated with postemergence applications of some of the test chemicals formulated in the same manner. Plants ranged in height from 2 to 18 cm (1- to 4-leaf stage) for postemergence treatments. […] At time of treatment, test pots were flooded to 3 cm above the soil surface, treated by application of test compounds directly to the paddy water, and then maintained at that water depth for the duration of the test. […] A dash (-) response means no test result.

morningglory = assay: Test A pre-/postemergence greenhouse test; assay type: in vivo, Ipomoea spp.; settings: for Plant response rating, Morningglory: 0 to 100 scale where 0 is no effect and 100 is complete control; for Morningglory plant response rating: 0 to 100 scale
Summary of the method: (§2)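 Untreated controls served as the reference for visual injury ratings taken about ten days after spraying. The non-phytotoxic solvent/surfactant formulation was applied preemergence to seeded loam and sand and postemergence to plants two to ten cm high.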

barnyardgrass [1] = assay: Test A pre-/postemergence greenhouse test; assay type: in vivo, Echinochloa crus-galli; settings: for Plant response rating, Barnyardgrass: 0 to 100 scale where 0 is no effect and 100 is complete control; for Barnyardgrass plant response rating: 0 to 100 scale
Summary of the method: as §2

soybean = assay: Test C pre-/postemergence test; assay type: in vivo, Glycine max
From the text: as §1

barnyardgrass [2] = assay: Test C flooded paddy test; assay type: in vivo, Echinochloa crus-galli; settings: Flood
Summary of the method: (§3)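 Under a constant 3 cm flood, test compounds went directly into the paddy water. Following 13 to 15 days of greenhouse growth, treated species and controls were compared by eye.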

umbrella sedge = assay: Test C flooded paddy test; assay type: in vivo, Cyperus difformis; settings: Flood
Summary of the method: as §3

Italian ryegrass = assay: Test C pre-/postemergence test; assay type: in vivo, Lolium multiflorum; settings: for Plant response rating, Ryegrass, Italian: 31 g ai/ha, scale 0 to 100 (0 no effect, 100 complete control)
From the text: as §1

giant foxtail = assay: Test A pre-/postemergence greenhouse test; assay type: in vivo, Setaria faberi; settings: for Plant response rating, Foxtail, Giant: 0 to 100 scale where 0 is no effect and 100 is complete control; for Foxtail, Giant plant response rating: 0 to 100 scale
Summary of the method: as §2

pigweed = assay: Test C pre-/postemergence test; assay type: in vivo, Amaranthus retroflexus
From the text: as §1

[3] = system: common (oilseed) sunflower; assay: Test C pre-/postemergence test; assay type: in vivo, Helianthus annuus; settings: for Plant response rating, Sunflower: 31 g ai/ha, scale 0 to 100 (0 no effect, 100 complete control)
From the text: as §1

crabgrass [4] = assay: Test A pre-/postemergence greenhouse test; assay type: in vivo, Digitaria sanguinalis; settings: for Plant response rating, Crabgrass, Large: 0 to 100 scale where 0 is no effect and 100 is complete control; for Crabgrass, Large plant response rating: 0 to 100 scale
Summary of the method: as §2

crabgrass [5] = assay: Test C pre-/postemergence test; assay type: in vivo, Digitaria sanguinalis; settings: for Plant response rating, Crabgrass, Large: 31 g ai/ha, scale 0 to 100 (0 no effect, 100 complete control)
From the text: as §1

kochia = assay: Test C pre-/postemergence test; assay type: in vivo, Kochia scoparia; settings: for Plant response rating, Kochia: 31 g ai/ha, scale 0 to 100 (0 no effect, 100 complete control)
From the text: as §1

bermudagrass = assay: Test C pre-/postemergence test; assay type: in vivo, Cynodon dactylon; settings: for Plant response rating, Bermudagrass: 31 g ai/ha
From the text: as §1

Goosegrass = assay: Test C pre-/postemergence test; assay type: in vivo, Eleusin indica; settings: for Plant response rating, Goosegrass: 31 g ai/ha, scale 0 to 100 (0 no effect, 100 complete control)
From the text: as §1

cocklebur = assay: Test C pre-/postemergence test; assay type: in vivo, Xanthium strumarium
From the text: as §1

[6] = 62 g ai/ha, Preemergence, scale 0 to 100
[7] = 125 g ai/ha, preemergence, scale 0 (no effect) to 100 (complete control)
[8] = preemergence, 250 g ai/ha, scale 0 (no effect) to 100 (complete control)
[9] = Postemergence, 500 g ai/ha, 0 is no effect, 100 is complete control
[10] = Preemergence, 125 g ai/ha, 0 no effect, 100 complete control
[11] = Preemergence, 31 g ai/ha, scale 0 to 100 (0 no effect, 100 complete control)
[12] = 62 g ai/ha, scale 0 to 100 (0 no effect, 100 complete control)
[13] = 250 g ai/ha, scale 0 to 100, 0 no effect, 100 complete control, 13 to 15 days
[14] = 62 g ai/ha, Preemergence, scale 0 to 100 (0 no effect, 100 complete control)
[15] = Preemergence, scale 0 to 100 (0 no effect, 100 complete control)

CCn1nc(C(F)(F)F)c(CS(=O)(=O)c2cccc[n+]2[O-])c1OCC(F)(F)F [Compound 63]
Surinam Grass plant response rating (Surinam grass; [6]): 100
Surinam Grass plant response rating (Surinam grass; [7]): 100
Plant response rating, Surinam Grass (Surinam grass; Preemergence): 100
Surinam Grass plant response rating (Surinam grass; [8]): 100
Plant response rating, Morningglory (morningglory; Postemergence, 125 g ai/ha): 30
Morningglory plant response rating (morningglory; [9]): 60
Morningglory plant response rating (morningglory; [10]): 20
Plant response rating, Morningglory (morningglory; Preemergence, 500 g ai/ha): 70
Plant response rating, Barnyardgrass (barnyardgrass [1]; Postemergence, 125 g ai/ha): 90
Barnyardgrass plant response rating (barnyardgrass [1]; [9]): 90
Barnyardgrass plant response rating (barnyardgrass [1]; [10]): 90
Plant response rating, Barnyardgrass (barnyardgrass [1]; Preemergence, 500 g ai/ha): 100
Soybean plant response rating (soybean; [6]): 5
Plant response rating, Soybean (soybean; [11]): 0
Soybean plant response rating (soybean; [8]): 50
Plant response rating, Barnyardgrass (barnyardgrass [2]; [12]): 40
Plant response rating, Barnyardgrass (barnyardgrass [2]; [13]): 40
Plant response rating, Sedge, Umbrella (umbrella sedge; [12]): 0
Plant response rating, Sedge, Umbrella (umbrella sedge; [13]): 85
Ryegrass, Italian plant response rating (Italian ryegrass; [6]): 50
Ryegrass, Italian plant response rating (Italian ryegrass; [7]): 60
Plant response rating, Ryegrass, Italian (Italian ryegrass; Preemergence): 0
Ryegrass, Italian plant response rating (Italian ryegrass; [8]): 100
Plant response rating, Foxtail, Giant (giant foxtail; Postemergence, 125 g ai/ha): 80
Foxtail, Giant plant response rating (giant foxtail; [9]): 90
Foxtail, Giant plant response rating (giant foxtail; [10]): 100
Plant response rating, Foxtail, Giant (giant foxtail; Preemergence, 500 g ai/ha): 100
Pigweed plant response rating (pigweed; [6]): 100
Pigweed plant response rating (pigweed; [7]): 100
Plant response rating, Pigweed (pigweed; [11]): 50
Pigweed plant response rating (pigweed; [8]): 100
Sunflower plant response rating [3, 6]: 60
Sunflower plant response rating [3, 7]: 80
Plant response rating, Sunflower ([3]; Preemergence): 10
Sunflower plant response rating [3, 8]: 85
Plant response rating, Crabgrass, Large (crabgrass [4]; Postemergence, 125 g ai/ha): 60
Crabgrass, Large plant response rating (crabgrass [4]; [9]): 90
Crabgrass, Large plant response rating (crabgrass [4]; [10]): 80
Plant response rating, Crabgrass, Large (crabgrass [4]; Preemergence, 500 g ai/ha): 100
Crabgrass, Large plant response rating (crabgrass [5]; [6]): 100
Crabgrass, Large plant response rating (crabgrass [5]; [7]): 100
Plant response rating, Crabgrass, Large (crabgrass [5]; Preemergence): 100
Crabgrass, Large plant response rating (crabgrass [5]; [8]): 100
Kochia plant response rating (kochia; [6]): 100
Kochia plant response rating (kochia; [7]): 100
Plant response rating, Kochia (kochia; Preemergence): 100
Kochia plant response rating (kochia; [8]): 100
Bermudagrass plant response rating (bermudagrass; [14]): 100
Bermudagrass plant response rating (bermudagrass; [7]): 100
Plant response rating, Bermudagrass (bermudagrass; [15]): 100
Bermudagrass plant response rating (bermudagrass; [8]): 100
Goosegrass plant response rating (Goosegrass; [6]): 100
Goosegrass plant response rating (Goosegrass; [7]): 100
Plant response rating, Goosegrass (Goosegrass; Preemergence): 100
Goosegrass plant response rating (Goosegrass; [8]): 100

CCn1nc(C(F)(F)F)c(C[S+]([O-])c2cc(C)cc[n+]2[O-])c1OCC(F)(F)F (racemic) [Compound 66]
Surinam Grass plant response rating (Surinam grass; [6]): 100
Surinam Grass plant response rating (Surinam grass; [7]): 100
Plant response rating, Surinam Grass (Surinam grass; Preemergence): 100
Surinam Grass plant response rating (Surinam grass; [8]): 100
Plant response rating, Morningglory (morningglory; Postemergence, 125 g ai/ha): 60
Morningglory plant response rating (morningglory; [9]): 90
Morningglory plant response rating (morningglory; [10]): 70
Plant response rating, Morningglory (morningglory; Preemergence, 500 g ai/ha): 100
Plant response rating, Barnyardgrass (barnyardgrass [1]; Postemergence, 125 g ai/ha): 70
Barnyardgrass plant response rating (barnyardgrass [1]; [9]): 90
Barnyardgrass plant response rating (barnyardgrass [1]; [10]): 60
Plant response rating, Barnyardgrass (barnyardgrass [1]; Preemergence, 500 g ai/ha): 100
Cocklebur plant response rating (cocklebur; [6]): 0
Cocklebur plant response rating (cocklebur; [8]): 85
Soybean plant response rating (soybean; [7]): 80
Plant response rating, Barnyardgrass (barnyardgrass [2]; [12]): 10
Plant response rating, Barnyardgrass (barnyardgrass [2]; [13]): 70
Plant response rating, Sedge, Umbrella (umbrella sedge; [12]): 85
Plant response rating, Sedge, Umbrella (umbrella sedge; [13]): 100
Ryegrass, Italian plant response rating (Italian ryegrass; [6]): 90
Ryegrass, Italian plant response rating (Italian ryegrass; [7]): 100
Plant response rating, Ryegrass, Italian (Italian ryegrass; Preemergence): 55
Plant response rating, Foxtail, Giant (giant foxtail; Postemergence, 125 g ai/ha): 80
Foxtail, Giant plant response rating (giant foxtail; [9]): 90
Foxtail, Giant plant response rating (giant foxtail; [10]): 90
Plant response rating, Foxtail, Giant (giant foxtail; Preemergence, 500 g ai/ha): 100
Pigweed plant response rating (pigweed; [6]): 30
Pigweed plant response rating (pigweed; [7]): 100
Pigweed plant response rating (pigweed; [8]): 100
Sunflower plant response rating [3, 6]: 80
Sunflower plant response rating [3, 7]: 80
Plant response rating, Sunflower ([3]; Preemergence): 30
Sunflower plant response rating [3, 8]: 98
Plant response rating, Crabgrass, Large (crabgrass [4]; Postemergence, 125 g ai/ha): 50
Crabgrass, Large plant response rating (crabgrass [4]; [9]): 90
Crabgrass, Large plant response rating (crabgrass [4]; [10]): 80
Plant response rating, Crabgrass, Large (crabgrass [4]; Preemergence, 500 g ai/ha): 100
Crabgrass, Large plant response rating (crabgrass [5]; [6]): 100
Crabgrass, Large plant response rating (crabgrass [5]; [7]): 100
Plant response rating, Crabgrass, Large (crabgrass [5]; Preemergence): 100
Crabgrass, Large plant response rating (crabgrass [5]; [8]): 100
Kochia plant response rating (kochia; [6]): 100
Kochia plant response rating (kochia; [7]): 100
Plant response rating, Kochia (kochia; Preemergence): 100
Kochia plant response rating (kochia; [8]): 100
Bermudagrass plant response rating (bermudagrass; [14]): 100
Bermudagrass plant response rating (bermudagrass; [7]): 100
Plant response rating, Bermudagrass (bermudagrass; [15]): 100
Bermudagrass plant response rating (bermudagrass; [8]): 100
Goosegrass plant response rating (Goosegrass; [6]): 100
Goosegrass plant response rating (Goosegrass; [7]): 100
Plant response rating, Goosegrass (Goosegrass; Preemergence): 100
Goosegrass plant response rating (Goosegrass; [8]): 100
